Assay results as given in patent US9833520B2, “Labeled, non-peptidic, multivalent integrin antagonist compounds; methods for synthesis and uses thereof” (The Methodist Hospital Research Institute, priority 2011, dated 2017).
“Also recorded” adds a separate entry of the source. Like-named read-outs stand apart in the source and are kept apart here. Blank lines part the entries; values can stand above or below the compound they belong to.

Columns and labels:
purified human αvβ3 = biological target: T1, purified human αvβ3 (Homo sapiens, UniProt P05106+P06756); test: ELISA: competitive inhibition of biotinylated vitronectin binding to immobilized purified integrin αvβ3; conditions: for higher binding affinity as compared to monomer 1 (IA): compared to IA 1
T1 construct: purchased Chemicon International, Temecula, Calif., USA
Procedure: In vitro Binding Assay. […] Purified integrin αvβ3 protein (Chemicon International, Temecula, Calif., USA) was applied to 96-well polystyrene microtiter plates at 0.1 μg/well. After overnight incubation at 4° C., the plates were washed, and then blocked with milk solution (KPL, Inc. Gaithersburg, Md., USA) at room temperature for 2 hr. The blocking buffer was removed, and the plates were inoculated in quadruplicate with bivalent IAs with a typical starting concentration of 125 nM. Serial dilutions were prepared in the 96-well plates using multichannel pipettes. Biotinylated vitronectin solution (0.1 μg/well) was added to each well as a standard competitor. The plates were incubated at room temperature for 3 h, washed, and the bound vitronectin was detected using NeutrAvidin-HRP conjugate at 0.01 μg/well (Pierce, Rockford, Ill., USA) and LumiGlo® chemiluminescent substrate system (KPL, Inc.). The luminescence was read using a FLUOstar™ OPTIMA Microplate Reader (Durham, N.C., USA). […] (Peptides International, Inc., Louisville, Ky., USA) was also tested using the same method as described above.
Briefly, purified integrin αvβ3 protein (Chemicon International, Temecula, Calif., USA) was applied to 96-well polystyrene microtiter plates for overnight incubation at 4° C. The plates were washed and then blocked with milk solution (KPL, Inc., Gaithersburg, Md., USA) and the plates were inoculated in quadruplicate with multivalent IAs at different concentrations. Biotinylated vitronectin solution was added to each well as a standard competitor. The plates were incubated at room temperature, washed, and the bound vitronectin detected using NeutrAvidin-HRP® conjugate (Pierce, Rockford, Ill., USA) and LumiGlo® chemiluminescent substrate system (KPL, Inc., Gaithersburg, Md., USA). The luminescence was read using a FLUOstar® OPTIMA Microplate Reader (Durham, N.C., USA).
In vitro Binding Affinity Assay. Purified integrin αvβ3 protein (Chemicon International, Temecula, Calif., USA) was applied to 96-well polystyrene microtiter plates at 1 μg/well. After overnight incubation at 4° C., the plates were washed and then blocked with milk solution (KPL, Inc., Gaithersburg, Md., USA) at room temperature for 2 hr. The blocking buffer was removed, and the plates were inoculated in quadruplicate with bivalent IAs with a typical starting concentration of 125 nM. Serial dilutions were prepared in the 96-well plates using multichannel pipettes. Biotinylated vitronectin solution (0.1 μg/well) was added to each well as a standard competitor.
The plates were incubated at room temperature for 3 hr, washed, and the bound vitronectin was detected using NeutrAvidin-HRP conjugate at 0.01 μg/well (Pierce, Rockford, Ill., USA) and LumiGlo® chemiluminescent substrate system (KPL, Inc.). The luminescence was read using a FLUOstar OPTIMA Microplate Reader (Durham, N.C., USA). […] It measured competitive binding of the integrin antagonist and biotinylated human vitronectin for the immobilized receptor αvβ3.

[1] = tested on: U-87 MG (ATCC HTB-14) glioblastoma cells over-expressing integrin αvβ3; test: Fluorescence microscopy probe binding assay in U-87 cells; assay type: cell-based, human; conditions: 200 nM, 37° C., 45 min, confocal microscopy
Procedure: Fluorescence Microscopy Studies. […] For fluorescence microscopy studies, 1×10^4 U-87 cells were cultured on 35 mm MatTek glass bottom culture dishes. After 24 hr, cells were washed with PBS and then incubated with bivalent-IA-Cy5.5 (200 nM) at 37° C. for 45 min. Integrin specificity of the probe binding was verified by incubating U-87 cells with and without a blocking dose of the non-fluorescent bivalent IA (20 μmol/L). After the incubation period, the cells were washed three times with ice-cold PBS. The fluorescence signal of the cells was recorded using FluoView® 1000 Laser Scanning Confocal Microscope (Olympus, Center Valley, Pa., USA) under a 40× oil-immersion objective, with laser excitation at 675 nm (Cy5.5). A differential interference contrast image was also recorded so that the origin of fluorescent signals could be confirmed.

U-87 xenograft tumors = test: In vivo and ex vivo NIR fluorescence imaging of U-87 xenograft tumor-bearing mice
Procedure: U-87 MG Xenograft Model, Animal procedures were performed according to approved protocols. Female athymic nude mice (nu/nu), obtained from Charles River Laboratories, Inc. (Cambridge, Mass., USA) at 4-6 weeks of age, were injected subcutaneously in the right rear thigh with 1×10^7 U-87 MG cells suspended in 100 μL of phosphate-buffered saline (PBS). The cancer cells were harvested from sub-confluent cultures with 0.25% trypsin. Trypsinization was stopped with DMEM containing 10% FBS, after which the cells were washed once in serum-free medium and resuspended in PBS. Trypan blue exclusion was performed to ensure >90% cell viability. The tumor bearing mice were subjected to in vivo imaging studies when the tumors reached 0.4-0.6 cm in diameter.
In vivo Fluorescence Imaging of Tumors. ˜3×10^6 U-87 cells were implanted bilaterally in the posterior flanks of immunocompromised (nu/nu) mice and grown to ˜4 to 6 mm in diameter. Imaging was carried out in groups of five mice. After palpable masses were detected, animals were manually restrained and imaging probes were intravenously administered (lateral tail vein) using a 30-Ga needle via aseptic technique. Free Cy5.5 was prepared by dissolving the same Cy5.5NHS ester used for labeling the bivalent IA (GE Healthcare, Piscatway, N.J., USA) in phosphate buffered saline (PBS), pH 7.4 overnight at 4° C. Stock concentration of free Cy5.5 was measured optically using the molar extinction coefficient of 250000M-1 cm-1 using a UV-visible spectrophotometer at the maximum absorbance wavelength (675 nm) as recommended by the manufacturer. The bivalent-IA-Cy5.5 was weighed and confirmed by spectrophotometric measurement. Appropriate dilutions of each probe were made in PBS, pH 7.4, and each was filter sterilized (0.2-μm) immediately prior to use. All animals weighed between 18 and 20 g, and each received 10 nmol of imaging probe (in a total volume of 100 μL). Fluorescence imaging was performed with a small animal-dedicated optical imaging system (Xenogen/Caliper IVIS-200, Mountain View, Calif., USA) under continuous 1.5-2.0% isoflurane delivered through the integrated anesthesia nosecone system. At 2-, 4-, 7-, 24-, and 48-hrs' post-injection, images were acquired with the surface of the tissue of interest (tumor) approximating a perpendicular viewing angle relative to the camera line of sight; this viewing angle was also used for normal tissue selection.
For determining tumor contrast, mean fluorescence intensities of the tumor area (T) defined as radiance (photons/sec/cm2/sr) at the right rear leg of the animal and of the area (N) at the right flank (normal tissue) were calculated by region-of-interest (ROI) analysis using the corresponding photograph of each image acquisition dataset to identify the tumor region. Pre-injection imaging was also performed to determine baseline autofluorescence. For competitive inhibition studies, mice (n=3) were co-injected with 500 nmol bivalent IA and 10 nmol of imaging probe (bivalent-IA-Cy5.5) following the same procedure described above. Free Cy5.5 studies were performed in the same manner following the intravenous injection of 10 nmol. For ex vivo biodistribution imaging, two tumor-bearing mice were imaged 24 hrs post injection of bivalent-IA-Cy5.5 and thereafter euthanized per IACUC protocol (CO2 and cervical dislocation). Tumor and major internal organs (heart, lung, liver, spleen, gastrointestinal tract, and kidneys) were harvested, weighed, and imaged against a black paper background. All image acquisition parameters were as follows: epi-illumination; Cy5.5 Em/Ex; Bin: (HR)4, FOV: 12.9; f2; 0.2 sec.

[2] = Example 2, PEG-linked ligands, averages of at least three determinations, read-out: In vitro EL1SA IC50

Structure (SMILES): O=C(NCCS(=O)(=O)N[C@@H](CNC(=O)c1ccc(OCCNC2=NCCCN2)cc1)C(=O)O)OCCOCCOCCOC(=O)NCCS(=O)(=O)N[C@@H](CNC(=O)c1ccc(OCCNC2=NCCCN2)cc1)C(=O)O [Compound 3]
IC50 (purified human αvβ3; [2]): 160 pM

Structure (SMILES): CC(C)(CN)COC(=O)NCCS(=O)(=O)N[C@@H](CNC(=O)c1ccc(OCCNC2=NCCCN2)cc1)C(=O)O [IAC 2]
IC50 (purified human αvβ3; [2]): 2070 pM
higher binding affinity as compared to monomer 1 (IA) (purified human αvβ3): about 10 fold
higher binding affinity as compared to monomer 1 (IA) (purified human αvβ3; listed as 2): 10 fold

Structure (SMILES): CC[N+]1=C(/C=C/C=C/C=C2/N(CCCCCC(=O)NC(CCCCCC(=O)NCCS(=O)(=O)N[C@@H](CNC(=O)c3ccc(OCCNC4=NCCCN4)cc3)C(=O)O)C(=O)NCCS(=O)(=O)N[C@@H](CNC(=O)c3ccc(OCCNC4=NCCCN4)cc3)C(=O)O)c3ccc4c(S(=O)(=O)O)cc(S(=O)(=O)O)cc4c3C2(C)C)C(C)(C)c2c1ccc1c(S(=O)(=O)[O-])cc(S(=O)(=O)O)cc21 (stereo partly drawn) [bivalent-IA-Cy5.5]
IC50 (purified human αvβ3; Example 1 bivalent IA study, FIG. 4, read-out: IC50 of vitronectin binding to αvβ3 (ELISA)): 130 ± 20 pM
endocytosis / binding of probe in U-87 cells [1]: endocytosis of the imaging probes; also recorded: integrin-mediated endocytosis
endocytosis / binding of probe in U-87 cells ([1]; listed as Bivalent-IA-Cy5.5 conjugate): Receptor-mediated endocytosis was observed
endocytosis / binding of probe in U-87 cells ([1]; listed as bivalent-IA-Cy5.5 conjugate): integrin-mediated endocytosis
tumor fluorescence signal / accumulation (U-87 xenograft tumors; 10 nmol i.v.): increased signal in tumor sites at 7, 24, and 48 hrs; also recorded: modest accumulation at the tumor site
tumor-to-normal tissue (T/N) fluorescence ratio, average maximum (U-87 xenograft tumors; 10 nmol i.v., plateau at 24 hr, n=5): ~1.84
ex vivo signal per mass of tissue (biodistribution) (U-87 xenograft tumors; 24 hrs post-injection, two animals): The highest signal per mass of tissue was observed for the tumor
blood-pool / circulation clearance rate (U-87 xenograft tumors; inferred from fluorescence): relatively slow blood-pool clearance rate; also recorded: relatively slow clearance of the probe from the circulation
route of clearance (U-87 xenograft tumors; inferred from kidney fluorescence signal, 24 hrs): mainly renal clearance
hepatic metabolism (U-87 xenograft tumors; inferred from minimal liver signal, 24 hrs): low hepatic metabolism

Structure (SMILES): CCN1\C(=C/C=C/C=C/C2=[N+](CCCCCC(=O)O)c3ccc4c(S(=O)(=O)O)cc(S(=O)(=O)O)cc4c3C2(C)C)C(C)(C)c2c1ccc1c(S(=O)(=O)[O-])cc(S(=O)(=O)O)cc21 [free Cy5.5, reference compound]
tumor fluorescence signal / accumulation (U-87 xenograft tumors; 10 nmol i.v.): slightly higher than the background but is lower than that achieved with the bivalent-IA-Cy5.5

Further lines, results first:

IC50 (purified human αvβ3; [2]): 160 pM
Structure (SMILES): O=C(NCCS(=O)(=O)N[C@@H](CNC(=O)c1ccc(OCCNC2=NCCCN2)cc1)C(=O)O)OCCOCCOCCOCCOC(=O)NCCS(=O)(=O)N[C@@H](CNC(=O)c1ccc(OCCNC2=NCCCN2)cc1)C(=O)O [Compound 4]

IC50 (purified human αvβ3; [2]): 160 pM
Structure (SMILES): O=C(NCCS(=O)(=O)N[C@@H](CNC(=O)c1ccc(OCCNC2=NCCCN2)cc1)C(=O)O)OCCOCCOCCOCCOCCOCCOCCOCCOC(=O)NCCS(=O)(=O)N[C@@H](CNC(=O)c1ccc(OCCNC2=NCCCN2)cc1)C(=O)O [Compound 5]

IC50 (purified human αvβ3; [2]): 90 pM
higher affinity as compared to the corresponding monomer 2 (purified human αvβ3; compared to IAC 2): ~23 fold
Structure (SMILES): CC(C)(CNC(=O)OCCOCCOCCOC(=O)NCC(C)(C)COC(=O)NCCS(=O)(=O)N[C@@H](CNC(=O)c1ccc(OCCNC2=NCCCN2)cc1)C(=O)O)COC(=O)NCCS(=O)(=O)N[C@@H](CNC(=O)c1ccc(OCCNC2=NCCCN2)cc1)C(=O)O [Compound 6]

IC50 (purified human αvβ3; [2]): 110 pM
Structure (SMILES): CC(C)(CNC(=O)OCCOCCOCCOCCOC(=O)NCC(C)(C)COC(=O)NCCS(=O)(=O)N[C@@H](CNC(=O)c1ccc(OCCNC2=NCCCN2)cc1)C(=O)O)COC(=O)NCCS(=O)(=O)N[C@@H](CNC(=O)c1ccc(OCCNC2=NCCCN2)cc1)C(=O)O [Compound 7]

IC50 (purified human αvβ3; [2]): 320 pM
Structure (SMILES): CC(C)(CNC(=O)OCCOCCOCCOCCOCCOCCOCCOCCOC(=O)NCC(C)(C)COC(=O)NCCS(=O)(=O)NC(CNC(=O)c1ccc(OCCNC2=NCCCN2)cc1)C(=O)O)COC(=O)NCCS(=O)(=O)NC(CNC(=O)c1ccc(OCCNC2=NCCCN2)cc1)C(=O)O (stereo not drawn) [Compound 8]
